Reference: article PMC11178787, “Development of a natural product optimization strategy for inhibitors against MraY, a promising antibacterial target” (Nature Communications, 2024)
Converted amounts (≈) assume the structure as drawn. Where two headings read alike, the source gives them in different places.

Experiments:
MraYSA (S. aureus MraY) = MraYSA (S. aureus MraY) (Staphylococcus aureus, UniProt Q2FZ93); assay: fluorescence assay of dansylated lipid I formation; type: biochemical
in vitro = assay: in vitro; design: WST-8 cell viability assay in HepG2 cells; details: human, hepg2 cells; read-out: IC50
Protocol: Cells were regularly passed to maintain exponential growth. HepG2 cells were sowed by 1.0 × 10^4 cells for each well in 96-well plate and cultured at 37 °C under 5% CO2 in air for 24 h. The cells were treated with a solution of test compounds in DMSO at various concentration and incubated at 37 °C under 5% CO2 in air for 24 h. After that, the WST-8 (Dojindo) cell proliferation assay was used. Cell viability was indicated as a percentage of the negative control (cells treated with DMSO only) and that value was fixed at 100%.

[1] = system: T1, E. faecalis(VRE) ATCC 51299; assay: microbe, parasite or virus in culture; design: CLSI broth microdilution MIC in MHB-II, single trial; details: Enterococcus faecalis, 18 h
T1 construct: ATCC 51299 (VRE)
Protocol: (§1) MICs were determined by a microdilution broth method as recommended by the CLSI with MHB-II. For MICs of stable analogues, a 2-fold dilution of each compound was prepared in DMSO at 100-fold of the final concentration. The strains were inoculated with 5 × 10^5 cfu/mL in 96-well plates (each 100 μL/well), and 1 μL of DMSO solutions of the samples were added (contained less than 1% DMSO). The plates were incubated at 37 °C for 18 h and then MICs were determined. MICs of stable analogues in Table 1 were the highest value in three trials. MICs in Supplementary Table 1 were determined in one trial.

E. faecium ATCC 35667 = system: T2, E. faecium ATCC 35667; assay: microbe, parasite or virus in culture; design: CLSI broth microdilution MIC in MHB-II, single trial; details: Enterococcus faecium, ATCC35667, 18 h
T2 construct: ATCC 35667
Protocol: as §1

[2] = system: T3, E. faecium(VRE) ATCC 51559; assay: microbe, parasite or virus in culture; design: CLSI broth microdilution MIC in MHB-II, single trial; details: Enterococcus faecium, 18 h
T3 construct: ATCC 51559 (VRE)
Protocol: as §1

[3] = system: T4, E. faecium(VRE) ATCC 51858; assay: microbe, parasite or virus in culture; design: CLSI broth microdilution MIC in MHB-II, single trial; details: Enterococcus faecium, 18 h
T4 construct: ATCC 51858 (VRE)
Protocol: as §1

S. aureus ATCC 29213 = system: T5, S. aureus ATCC 29213; assay: microbe, parasite or virus in culture; design: CLSI broth microdilution MIC in MHB-II, single trial; details: Staphylococcus aureus, ATCC29213, 18 h
T5 construct: ATCC 29213
Protocol: as §1

[4] = system: T6, Staphylococcus aureus MRSA JE2; assay: microbe, parasite or virus in culture; design: CLSI broth microdilution MIC in MHB-II, single trial; details: 18 h
T6 construct: JE2 (MRSA)
Protocol: as §1

Enterococcus faecalis 21 = system: T7, Enterococcus faecalis 21; assay: microbe, parasite or virus in culture; design: CLSI broth microdilution MIC in MHB-II; details: Enterococcus faecalis, 21, 18 h, read-out: MIC
T7 construct: 21
Protocol: as §1

Enterococcus faecalis 22 = system: T8, Enterococcus faecalis 22; assay: microbe, parasite or virus in culture; design: CLSI broth microdilution MIC in MHB-II; details: Enterococcus faecalis, 22, 18 h, read-out: MIC
T8 construct: 22
Protocol: as §1

Enterococcus faecalis 28 = system: T9, Enterococcus faecalis 28; assay: microbe, parasite or virus in culture; design: CLSI broth microdilution MIC in MHB-II; details: Enterococcus faecalis, 28, 18 h, read-out: MIC
T9 construct: 28
Protocol: as §1

Enterococcus faecium 1 = assay: microbe, parasite or virus in culture; design: CLSI broth microdilution MIC in MHB-II; details: Enterococcus faecium, 1, 18 h, read-out: MIC
Protocol: as §1

Enterococcus faecium 4 = assay: microbe, parasite or virus in culture; design: CLSI broth microdilution MIC in MHB-II; details: Enterococcus faecium, 4, 18 h, read-out: MIC
Protocol: as §1

Enterococcus faecium 5 = assay: microbe, parasite or virus in culture; design: CLSI broth microdilution MIC in MHB-II; details: Enterococcus faecium, 5, 18 h, read-out: MIC
Protocol: as §1

Enterococcus faecium 8 = assay: microbe, parasite or virus in culture; design: CLSI broth microdilution MIC in MHB-II; details: Enterococcus faecium, 8, 18 h, read-out: MIC
Protocol: as §1

[5] = system: T10, Staphylococcus aureus #1958; assay: microbe, parasite or virus in culture; design: CLSI broth microdilution MIC in MHB-II; details: Staphylococcus aureus, 18 h, read-out: MIC
T10 construct: #1958
Protocol: as §1

[6] = system: T11, Staphylococcus aureus #2071; assay: microbe, parasite or virus in culture; design: CLSI broth microdilution MIC in MHB-II; details: Staphylococcus aureus, 18 h, read-out: MIC
T11 construct: #2071
Protocol: as §1

[7] = system: T12, Staphylococcus aureus #2110; assay: microbe, parasite or virus in culture; design: CLSI broth microdilution MIC in MHB-II; details: Staphylococcus aureus, 18 h, read-out: MIC
T12 construct: #2110
Protocol: as §1

[8] = system: T13, Staphylococcus aureus #2334; assay: microbe, parasite or virus in culture; design: CLSI broth microdilution MIC in MHB-II; details: Staphylococcus aureus, 18 h, read-out: MIC
T13 construct: #2334
Protocol: as §1

[9] = system: T14, Staphylococcus aureus #2931; assay: microbe, parasite or virus in culture; design: CLSI broth microdilution MIC in MHB-II; details: Staphylococcus aureus, 18 h, read-out: MIC
T14 construct: #2931
Protocol: as §1

[10] = system: T15, Staphylococcus aureus #2933; assay: microbe, parasite or virus in culture; design: CLSI broth microdilution MIC in MHB-II; details: Staphylococcus aureus, 18 h, read-out: MIC
T15 construct: #2933
Protocol: as §1

[11] = system: T16, Staphylococcus aureus #2934; assay: microbe, parasite or virus in culture; design: CLSI broth microdilution MIC in MHB-II; details: Staphylococcus aureus, 18 h, read-out: MIC
T16 construct: #2934
Protocol: as §1

[12] = system: T17, Staphylococcus aureus #2935; assay: microbe, parasite or virus in culture; design: CLSI broth microdilution MIC in MHB-II; details: Staphylococcus aureus, 18 h, read-out: MIC
T17 construct: #2935
Protocol: as §1

Sequence of MraYSA (S. aureus MraY) (Q2FZ93 whole entry): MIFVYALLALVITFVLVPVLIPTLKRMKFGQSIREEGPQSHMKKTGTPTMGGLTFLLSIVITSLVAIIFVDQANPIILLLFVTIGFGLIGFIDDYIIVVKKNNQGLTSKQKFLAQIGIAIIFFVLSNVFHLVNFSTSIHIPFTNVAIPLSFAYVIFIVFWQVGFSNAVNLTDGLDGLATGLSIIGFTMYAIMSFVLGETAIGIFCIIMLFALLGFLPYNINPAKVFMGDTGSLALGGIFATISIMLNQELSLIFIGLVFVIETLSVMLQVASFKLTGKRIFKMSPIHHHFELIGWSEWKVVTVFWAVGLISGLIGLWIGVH

Compound | IC50 (MraYSA (S. aureus MraY)) | CC50 at 24 h (in vitro) | MIC (Enterococcus faecalis 21) | MIC (Enterococcus faecalis 22) | MIC (Enterococcus faecalis 28) | MIC (Enterococcus faecium 1) | MIC (Enterococcus faecium 4) | MIC (Enterococcus faecium 5) | MIC (Enterococcus faecium 8) | MIC [5] | MIC [6] | MIC [7] | MIC [8] | MIC [9] | MIC [10] | MIC [11] | MIC [12] | other results
CCCCCCCCCCCCCCCC(=O)N[C@@H](CCCCN)C(=O)NCc1cccc(CN[C@H](C(=O)O)[C@H](O[C@@H]2O[C@H](CN)[C@@H](O)[C@H]2O)[C@H]2O[C@@H](n3ccc(=O)[nH]c3=O)[C@H](O)[C@@H]2O)c1 [compound 2, analogue 2] | 0.0059 µM | 16 µM | 0.13 µg/mL (≈ 0.139 µM) | 0.13 µg/mL (≈ 0.139 µM) | < 0.06 µg/mL | 1 µg/mL (≈ 1.07 µM) | 0.5 µg/mL (≈ 0.535 µM) | 1 µg/mL (≈ 1.07 µM) | 0.5 µg/mL (≈ 0.535 µM) | 1 µg/mL (≈ 1.07 µM) | 1 µg/mL (≈ 1.07 µM) | 2 µg/mL (≈ 2.14 µM) | 1 µg/mL (≈ 1.07 µM) | 0.5 µg/mL (≈ 0.535 µM) | 0.5 µg/mL (≈ 0.535 µM) | 0.5 µg/mL (≈ 0.535 µM) | 1 µg/mL (≈ 1.07 µM) | MIC ([1]; read-out: 2 MIC): 0.5 µg/mL (≈ 0.535 µM); MIC (E. faecium ATCC 35667; read-out: 2 MIC): 0.5 µg/mL (≈ 0.535 µM); MIC ([2]; read-out: 2 MIC): 0.5 µg/mL (≈ 0.535 µM); MIC ([3]; read-out: 2 MIC): 2 µg/mL (≈ 2.14 µM); MIC (S. aureus ATCC 29213; read-out: 2 MIC): 1 µg/mL (≈ 1.07 µM); MIC ([4]; read-out: 2 MIC): 1 µg/mL (≈ 1.07 µM)
CCCCCCCCCCCCCCCC(=O)N[C@@H](CCCNC(=N)N)C(=O)NCc1cccc(CN[C@H](C(=O)O)[C@H](O[C@@H]2O[C@H](CN)[C@@H](O)[C@H]2O)[C@H]2O[C@@H](n3ccc(=O)[nH]c3=O)[C@H](O)[C@@H]2O)c1 [compound 4, analogue 4] | 0.005 µM | 19 µM | 0.13 µg/mL (≈ 0.135 µM) | 0.13 µg/mL (≈ 0.135 µM) | < 0.06 µg/mL | 1 µg/mL (≈ 1.04 µM) | 0.5 µg/mL (≈ 0.52 µM) | 1 µg/mL (≈ 1.04 µM) | 0.5 µg/mL (≈ 0.52 µM) | 2 µg/mL (≈ 2.08 µM) | 1 µg/mL (≈ 1.04 µM) | 4 µg/mL (≈ 4.16 µM) | 2 µg/mL (≈ 2.08 µM) | 1 µg/mL (≈ 1.04 µM) | 1 µg/mL (≈ 1.04 µM) | 1 µg/mL (≈ 1.04 µM) | 2 µg/mL (≈ 2.08 µM) | MIC ([1]; read-out: 4 MIC): 0.25 µg/mL (≈ 0.26 µM); MIC (E. faecium ATCC 35667; read-out: 4 MIC): 0.5 µg/mL (≈ 0.52 µM); MIC ([2]; read-out: 4 MIC): 1 µg/mL (≈ 1.04 µM); MIC ([3]; read-out: 4 MIC): 2 µg/mL (≈ 2.08 µM); MIC (S. aureus ATCC 29213; read-out: 4 MIC): 1 µg/mL (≈ 1.04 µM); MIC ([4]; read-out: 4 MIC): 2 µg/mL (≈ 2.08 µM)
CCCCCCCCCCCCCCCC(=O)N[C@@H](CCCCN)C(=O)Nc1ccc(CN[C@H](C(=O)O)[C@H](O[C@@H]2O[C@H](CN)[C@@H](O)[C@H]2O)[C@H]2O[C@@H](n3ccc(=O)[nH]c3=O)[C@H](O)[C@@H]2O)cc1 [compound 5, analogue 5] | 0.0031 µM | 22 µM | 0.5 µg/mL (≈ 0.543 µM) | 0.13 µg/mL (≈ 0.141 µM) | < 0.06 µg/mL | 1 µg/mL (≈ 1.09 µM) | 0.25 µg/mL (≈ 0.272 µM) | 0.5 µg/mL (≈ 0.543 µM) | 0.25 µg/mL (≈ 0.272 µM) | 1 µg/mL (≈ 1.09 µM) | 0.5 µg/mL (≈ 0.543 µM) | 1 µg/mL (≈ 1.09 µM) | 1 µg/mL (≈ 1.09 µM) | 0.25 µg/mL (≈ 0.272 µM) | 0.5 µg/mL (≈ 0.543 µM) | 0.25 µg/mL (≈ 0.272 µM) | 1 µg/mL (≈ 1.09 µM) | MIC ([1]; read-out: 5 MIC): 0.25 µg/mL (≈ 0.272 µM); MIC (E. faecium ATCC 35667; read-out: 5 MIC): 0.25 µg/mL (≈ 0.272 µM); MIC ([2]; read-out: 5 MIC): 0.25 µg/mL (≈ 0.272 µM); MIC ([3]; read-out: 5 MIC): 1 µg/mL (≈ 1.09 µM); MIC (S. aureus ATCC 29213; read-out: 5 MIC): 0.5 µg/mL (≈ 0.543 µM); MIC ([4]; read-out: 5 MIC): 1 µg/mL (≈ 1.09 µM)
CCCCCCCCCCCCCCCC(=O)N[C@@H](CCCNC(=N)N)C(=O)Nc1cccc(CN[C@H](C(=O)O)[C@H](O[C@@H]2O[C@H](CN)[C@@H](O)[C@H]2O)[C@H]2O[C@@H](n3ccc(=O)[nH]c3=O)[C@H](O)[C@@H]2O)c1 [compound 8, analogue 8] | 0.0018 µM | 23 µM | 1 µg/mL (≈ 1.05 µM) | 1 µg/mL (≈ 1.05 µM) | < 0.06 µg/mL | 1 µg/mL (≈ 1.05 µM) | 1 µg/mL (≈ 1.05 µM) | 1 µg/mL (≈ 1.05 µM) | 1 µg/mL (≈ 1.05 µM) | 2 µg/mL (≈ 2.11 µM) | 64 µg/mL (≈ 67.5 µM) | 2 µg/mL (≈ 2.11 µM) |  | 1 µg/mL (≈ 1.05 µM) | 1 µg/mL (≈ 1.05 µM) | 1 µg/mL (≈ 1.05 µM) | 2 µg/mL (≈ 2.11 µM) | MIC ([1]; read-out: 8 MIC): 1 µg/mL (≈ 1.05 µM); MIC (E. faecium ATCC 35667; read-out: 8 MIC): 0.5 µg/mL (≈ 0.527 µM); MIC ([2]; read-out: 8 MIC): 1 µg/mL (≈ 1.05 µM); MIC ([3]; read-out: 8 MIC): 2 µg/mL (≈ 2.11 µM); MIC (S. aureus ATCC 29213; read-out: 8 MIC): 1 µg/mL (≈ 1.05 µM); MIC ([4]; read-out: 8 MIC): 2 µg/mL (≈ 2.11 µM)
